Among the data in ChEMBL document CHEMBL2434908, “Synthesis and antibacterial evaluation of 3,3-diindolylmethane derivatives” (Med Chem Res, 2013) are MIC, Activity and hemolysis values, retold here.

In series [1] the test system is Rhodococcus. Nature of the series: Antibacterial activity against Rhodococcus Sp. assessed as growth inhibition by agar plate method. The format is functional.
The subject of series [2] is Pseudomonas aeruginosa. Nature of the series: Antibacterial activity against Pseudomonas aeruginosa assessed as growth inhibition by agar plate method. The series is classed as functional.
Series [3] concerns Shigella flexneri. Kind of series: Antibacterial activity against Shigella flexneri assessed as growth inhibition by agar plate method. The series is classed as functional.
The nature of series [4]: Hemolytic activity in human RBC up to 400 ug/mL after 1 hr by spectrophotometric analysis relative to control. The series is classed as ADME, cell-based, Erythrocyte.
Series [5] concerns Proteus mirabilis. Kind of series: Antibacterial activity against Proteus mirabilis assessed as growth inhibition by agar plate method. The series is classed as functional.
A short description of series [6]: Hemolytic activity in human RBC up to 200 ug/mL after 1 hr by spectrophotometric analysis relative to control. The series is classed as ADME, cell-based, Erythrocyte. The note with it: human red blood cells, read-out: Activity.
Series [7] relates to Arthrobacter protophormiae. Kind of series: Antibacterial activity against Arthrobacter protophormiae assessed as growth inhibition by agar plate method. The format is functional. The note with it: Glutamicibacter protophormiae.
Series [8] deals with Lactococcus lactis. Kind of series: Antibacterial activity against Lactococcus lactis assessed as growth inhibition by agar plate method. The series is classed as functional.
In series [9] the test system is Escherichia coli. Nature of the series: Antibacterial activity against Escherichia coli assessed as growth inhibition by agar plate method. The format is functional.
Series [10] relates to Staphylococcus aureus. Kind of series: Antibacterial activity against Staphylococcus aureus assessed as growth inhibition by agar plate method. The series is classed as functional.
For series [11], the system named is Mycolicibacterium smegmatis. Kind of series: Antibacterial activity against Mycobacterium smegmatis assessed as growth inhibition by agar plate method. The format is functional.
The test system of series [12] is Bacillus subtilis. Nature of the series: Antibacterial activity against Bacillus subtilis assessed as growth inhibition by agar plate method. The format is functional.
Series [13] can be described thus: Hemolytic activity in human RBC at 12.5 ug/mL after 1 hr by spectrophotometric analysis relative to control. The series is classed as ADME, cell-based, Erythrocyte. The note with it: human red blood cells, read-out: Activity.

Values after ≈ are worked out from the molar mass of the structure shown. Some results are limits rather than exact numbers.

Broadly, the MIC is the lowest concentration found to suppress growth. Consider `c1ccc2c(C(c3c[nH]c4ccccc34)c3c[nH]c4ccccc34)c[nH]c2c1`, for which the MIC turned out to be 31.2 µg/mL (≈ 86.3 µM) in [1]; 125 µg/mL (≈ 346 µM) in [2]; 250 µg/mL (≈ 692 µM) in [3]; 250 µg/mL (≈ 692 µM) in series [5]; 125 µg/mL (≈ 346 µM) in series [7]; 500 µg/mL (≈ 1380 µM) in series [8]. For the same compound, the MIC in [9] was found to be 125 µg/mL (≈ 346 µM); in [10], 250 µg/mL (≈ 692 µM); in [11], 31.2 µg/mL (≈ 86.3 µM); in series [12] it was 250 µg/mL (≈ 692 µM). The Activity entry in [4] (erythrocyte, 1 h) is “Toxic”. Moreover, the hemolysis at 1 h in [6] was found to be 20%.

With `OC[C@@H](O)[C@@H](O)[C@H](O)[C@H](O)C(c1c[nH]c2ccccc12)c1c[nH]c2ccccc12`, the minimum inhibitory concentration (MIC) in [1], in series [2], in series [3], in series [5], in series [7] and in series [8] was above 500 µg/mL each time. The MIC in series [9], in [10], in series [11] and in [12] was above 500 µg/mL in each case.

On to `OC[C@@H](O)[C@@H](O)[C@H](O)[C@@H](O)C(c1c[nH]c2ccccc12)c1c[nH]c2ccccc12`, for which the MIC in [1], in series [2], in series [3], in [5], in [7] and in series [8] was above 500 µg/mL throughout. Besides, the MIC in [9], in [10], in series [11] and in series [12] was above 500 µg/mL each time.

On to `Cc1[nH]c2ccccc2c1Cc1c(C)[nH]c2ccccc12`, for which the MIC in [1], in series [2], in series [3], in series [5], in series [7] and in series [8] was above 500 µg/mL each time. For the same compound, the MIC in [9], in series [10], in series [11] and in [12] was above 500 µg/mL each time.

With `OC[C@@H](O)[C@@H](O)[C@@H](O)C(c1c[nH]c2ccccc12)c1c[nH]c2ccccc12`, the MIC in series [1] came out at 15.5 µg/mL (≈ 42.3 µM); in [2], 62.5 µg/mL (≈ 171 µM); in series [3], 31.2 µg/mL (≈ 85.1 µM); in [5], 31.2 µg/mL (≈ 85.1 µM); in [7], 62.5 µg/mL (≈ 171 µM); in series [8] it was 62.5 µg/mL (≈ 171 µM). In addition, the MIC in series [9] was 62.5 µg/mL (≈ 171 µM); in series [10], 62.5 µg/mL (≈ 171 µM); in series [11], 31.2 µg/mL (≈ 85.1 µM); in series [12], 125 µg/mL (≈ 341 µM). The hemolysis at 1 h in [4] (human red blood cells, read-out: Activity) came to 15%.

Regarding `CN(C)c1ccc(C(c2c[nH]c3ccccc23)c2c[nH]c3ccccc23)cc1`, the MIC in series [1], in series [2], in series [3], in [5], in series [7] and in [8] was above 500 µg/mL throughout. The MIC in series [9], in series [10], in series [11] and in series [12] was above 500 µg/mL in each case.

In the case of `c1coc(C(c2c[nH]c3ccccc23)c2c[nH]c3ccccc23)c1`, the MIC came to 31.2 µg/mL (≈ 99.9 µM) in series [1]; 31.2 µg/mL (≈ 99.9 µM) in series [2]; 31.2 µg/mL (≈ 99.9 µM) in [3]; 31.2 µg/mL (≈ 99.9 µM) in series [5]; 31.2 µg/mL (≈ 99.9 µM) in series [7]; 62.5 µg/mL (≈ 200 µM) in series [8]. Moreover, the MIC in series [9] worked out at 62.5 µg/mL (≈ 200 µM); in [10], 125 µg/mL (≈ 400 µM); in series [11], 15.5 µg/mL (≈ 49.6 µM); in [12], 125 µg/mL (≈ 400 µM). In series [13], the hemolysis at 1 h, 12.5 ug/mL was 50%.

`c1ccc(-c2[nH]c3ccccc3c2Cc2c(-c3ccccc3)[nH]c3ccccc23)cc1`: the MIC in [1], in [2], in [3], in series [5], in series [7] and in [8] was above 500 µg/mL throughout. The MIC in [9], in series [10], in [11] and in series [12] was above 500 µg/mL each time.

Consider `COc1ccc2[nH]cc(Cc3c[nH]c4ccc(OC)cc34)c2c1`, for which the MIC in [1], in [2], in [3], in [5], in [7] and in series [8] was above 500 µg/mL in each case. In addition, the MIC in series [9], in series [10], in series [11] and in series [12] was above 500 µg/mL throughout.

Consider `c1ccc2c(Cc3c[nH]c4ccccc34)c[nH]c2c1` [ARUNDINE], for which the MIC is 125 µg/mL (≈ 507 µM) in [1]; 250 µg/mL (≈ 1010 µM) in series [2]; 125 µg/mL (≈ 507 µM) in series [3]; 250 µg/mL (≈ 1010 µM) in series [5]; 125 µg/mL (≈ 507 µM) in [7]; 500 µg/mL (≈ 2030 µM) in series [8]. Further, the MIC in series [9] worked out at 250 µg/mL (≈ 1010 µM); in [10] it was 250 µg/mL (≈ 1010 µM); in [11] it was 125 µg/mL (≈ 507 µM); in series [12], 250 µg/mL (≈ 1010 µM). Moreover, the hemolysis at 1 h in series [6] came to 20%.

As to `c1cncc(C(c2c[nH]c3ccccc23)c2c[nH]c3ccccc23)c1`, the MIC in series [1] is 6.5 µg/mL (≈ 20.1 µM); in [2] it was 31.2 µg/mL (≈ 96.5 µM); in series [3], 15.5 µg/mL (≈ 47.9 µM); in [5] it was 15.5 µg/mL (≈ 47.9 µM); in series [7], 15.5 µg/mL (≈ 47.9 µM); in series [8], 15.5 µg/mL (≈ 47.9 µM). For the same compound, the MIC was 31.2 µg/mL (≈ 96.5 µM) in [9], 32.2 µg/mL (≈ 99.6 µM) in series [10], 31.2 µg/mL (≈ 96.5 µM) in series [11] and 15.5 µg/mL (≈ 47.9 µM) in [12]. Besides, in series [6], the hemolysis at 1 h was 20%.

Take `Oc1ccccc1C(c1c[nH]c2ccccc12)c1c[nH]c2ccccc12`: the MIC in series [1] was 7.5 µg/mL (≈ 22.2 µM); in series [2] it was 62.5 µg/mL (≈ 185 µM); in series [3], 15.5 µg/mL (≈ 45.8 µM); in series [5], 15.5 µg/mL (≈ 45.8 µM); in series [7], 15.5 µg/mL (≈ 45.8 µM); in series [8] it was 31.2 µg/mL (≈ 92.2 µM). Besides, the MIC turned out to be 15.5 µg/mL (≈ 45.8 µM) in series [9], 15.5 µg/mL (≈ 45.8 µM) in series [10], 6.5 µg/mL (≈ 19.2 µM) in series [11] and 15.5 µg/mL (≈ 45.8 µM) in series [12]. The hemolysis at 1 h in [6] worked out at 20%.

Consider `OC[C@@H](O)[C@H](O)[C@H](O)[C@@H](O)C(c1c[nH]c2ccccc12)c1c[nH]c2ccccc12`, for which the MIC in [1], in series [2], in series [3], in [5], in series [7] and in series [8] was above 500 µg/mL throughout. For the same compound, the MIC in series [9], in series [10], in series [11] and in series [12] was above 500 µg/mL each time.

Consider `CN[C@@H]1[C@H](O[C@H]2[C@H](O[C@H]3[C@H](O)[C@@H](O)[C@H](N=C(N)N)[C@@H](O)[C@@H]3N=C(N)N)O[C@@H](C)[C@]2(O)C=O)O[C@@H](CO)[C@H](O)[C@H]1O` [STREPTOMYCIN], for which the MIC in series [1] is 0.75 µg/mL (≈ 1.29 µM); in series [2], 3.15 µg/mL (≈ 5.42 µM); in series [3], 6.25 µg/mL (≈ 10.7 µM); in series [5], 1.25 µg/mL (≈ 2.15 µM); in series [7] it was 0.75 µg/mL (≈ 1.29 µM); in [8], 1.5 µg/mL (≈ 2.58 µM). Moreover, the MIC in series [9] is 6.25 µg/mL (≈ 10.7 µM); in series [10], 12.5 µg/mL (≈ 21.5 µM); in series [11] it was 1.25 µg/mL (≈ 2.15 µM); in series [12], 1.5 µg/mL (≈ 2.58 µM).
